Active and inactive are the calls of the source. No cut-off for these calls is given here.
Assays:
[1] = target: T1, Serine/threonine-protein kinase D1 (Homo sapiens) (UniProt Q15139); test: Inhibition of PKD1 Lys2 labeling site in human Huh-7 cells at 1 uM by KiNativ Profiling analysis relative to control; assay type: cell-based
T1 sequence (whole entry): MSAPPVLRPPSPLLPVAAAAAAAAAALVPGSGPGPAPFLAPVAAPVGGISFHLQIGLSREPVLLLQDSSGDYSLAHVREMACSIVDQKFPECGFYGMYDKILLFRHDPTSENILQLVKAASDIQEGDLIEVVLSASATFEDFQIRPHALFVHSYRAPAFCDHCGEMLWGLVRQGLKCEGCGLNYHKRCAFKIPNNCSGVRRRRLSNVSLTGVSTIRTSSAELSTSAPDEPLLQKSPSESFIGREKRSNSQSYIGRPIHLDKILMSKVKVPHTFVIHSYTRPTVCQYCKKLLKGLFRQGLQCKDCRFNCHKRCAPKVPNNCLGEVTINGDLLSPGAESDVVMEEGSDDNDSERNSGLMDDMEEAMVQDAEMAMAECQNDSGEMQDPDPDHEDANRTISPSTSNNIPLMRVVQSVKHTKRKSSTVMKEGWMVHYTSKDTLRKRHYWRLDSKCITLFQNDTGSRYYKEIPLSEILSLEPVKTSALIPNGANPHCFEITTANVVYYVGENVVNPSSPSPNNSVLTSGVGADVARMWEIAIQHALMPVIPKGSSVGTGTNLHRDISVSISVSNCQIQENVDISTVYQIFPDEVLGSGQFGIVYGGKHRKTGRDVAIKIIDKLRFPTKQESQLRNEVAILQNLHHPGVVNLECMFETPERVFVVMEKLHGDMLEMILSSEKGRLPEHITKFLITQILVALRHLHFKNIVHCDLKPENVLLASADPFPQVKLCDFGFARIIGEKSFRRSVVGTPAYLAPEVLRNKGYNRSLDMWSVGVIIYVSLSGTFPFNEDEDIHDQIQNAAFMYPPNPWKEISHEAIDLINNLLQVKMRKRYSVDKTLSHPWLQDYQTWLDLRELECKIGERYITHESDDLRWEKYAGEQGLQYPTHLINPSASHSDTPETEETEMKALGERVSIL

[2] = target: Serine/threonine-protein kinase 16 (Homo sapiens) (UniProt O75716); test: Inhibition of STK16 (unknown origin) at 10 uM by Ambit Kinomescan binding assay
Serine/threonine-protein kinase 16 (Homo sapiens), sequence (O75716 whole entry, the tested form may be a part): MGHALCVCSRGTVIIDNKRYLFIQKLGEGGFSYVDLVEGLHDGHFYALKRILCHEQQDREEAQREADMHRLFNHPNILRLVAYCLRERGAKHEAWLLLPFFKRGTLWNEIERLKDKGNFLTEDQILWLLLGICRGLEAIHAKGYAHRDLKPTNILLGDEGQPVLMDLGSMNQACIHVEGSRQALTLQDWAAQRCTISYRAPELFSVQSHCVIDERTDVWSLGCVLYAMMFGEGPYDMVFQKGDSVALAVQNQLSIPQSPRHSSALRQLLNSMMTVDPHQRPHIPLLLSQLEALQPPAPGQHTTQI

[3] = target: Non-receptor tyrosine-protein kinase TYK2 (Homo sapiens) (UniProt P29597); test: Inhibition of TYK2 domain2 ACT labeling site in human A-375 cells at 5 uM by KiNativ Profiling analysis relative to control; assay type: cell-based
Non-receptor tyrosine-protein kinase TYK2 (Homo sapiens), sequence (P29597 whole entry, the tested form may be a part): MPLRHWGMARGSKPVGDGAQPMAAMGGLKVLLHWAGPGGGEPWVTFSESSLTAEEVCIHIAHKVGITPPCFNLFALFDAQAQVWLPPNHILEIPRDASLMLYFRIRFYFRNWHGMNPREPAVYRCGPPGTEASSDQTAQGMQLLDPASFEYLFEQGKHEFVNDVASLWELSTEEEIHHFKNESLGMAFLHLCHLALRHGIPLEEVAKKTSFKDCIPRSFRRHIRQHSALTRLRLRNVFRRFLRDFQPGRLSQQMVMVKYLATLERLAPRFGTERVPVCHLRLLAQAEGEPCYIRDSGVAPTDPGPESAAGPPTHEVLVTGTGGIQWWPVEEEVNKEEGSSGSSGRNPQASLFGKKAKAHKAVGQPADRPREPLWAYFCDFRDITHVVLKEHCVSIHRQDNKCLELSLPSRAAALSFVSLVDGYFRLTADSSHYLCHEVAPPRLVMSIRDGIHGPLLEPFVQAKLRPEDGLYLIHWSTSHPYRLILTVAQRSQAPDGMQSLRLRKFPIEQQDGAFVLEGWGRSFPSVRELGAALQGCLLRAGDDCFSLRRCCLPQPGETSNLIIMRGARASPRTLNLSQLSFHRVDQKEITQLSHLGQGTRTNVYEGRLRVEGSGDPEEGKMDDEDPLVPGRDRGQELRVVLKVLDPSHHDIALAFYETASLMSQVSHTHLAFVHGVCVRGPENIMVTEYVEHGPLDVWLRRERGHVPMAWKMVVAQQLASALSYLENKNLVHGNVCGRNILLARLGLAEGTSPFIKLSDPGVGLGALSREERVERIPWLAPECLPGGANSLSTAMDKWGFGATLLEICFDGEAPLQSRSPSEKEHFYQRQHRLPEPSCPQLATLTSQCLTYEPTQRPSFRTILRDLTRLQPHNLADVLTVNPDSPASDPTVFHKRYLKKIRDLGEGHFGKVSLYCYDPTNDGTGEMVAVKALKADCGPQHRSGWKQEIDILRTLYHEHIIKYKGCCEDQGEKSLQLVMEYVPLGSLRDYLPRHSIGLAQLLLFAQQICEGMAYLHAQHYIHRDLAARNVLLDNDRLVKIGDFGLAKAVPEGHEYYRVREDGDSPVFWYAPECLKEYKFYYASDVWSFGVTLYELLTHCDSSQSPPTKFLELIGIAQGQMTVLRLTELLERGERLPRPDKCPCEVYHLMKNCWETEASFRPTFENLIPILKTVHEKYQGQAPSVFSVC

[4] = target: Serine/threonine-protein kinase Aurora (Homo sapiens) (UniProt Q96GD4+Q9UQB9+O14965); test: Inhibition of AurA/B/C ATP labeling site in human Huh-7 cells at 10 uM by KiNativ Profiling analysis relative to control; assay type: cell-based
Serine/threonine-protein kinase Aurora (Homo sapiens), sequence (O14965 whole entry, looked up): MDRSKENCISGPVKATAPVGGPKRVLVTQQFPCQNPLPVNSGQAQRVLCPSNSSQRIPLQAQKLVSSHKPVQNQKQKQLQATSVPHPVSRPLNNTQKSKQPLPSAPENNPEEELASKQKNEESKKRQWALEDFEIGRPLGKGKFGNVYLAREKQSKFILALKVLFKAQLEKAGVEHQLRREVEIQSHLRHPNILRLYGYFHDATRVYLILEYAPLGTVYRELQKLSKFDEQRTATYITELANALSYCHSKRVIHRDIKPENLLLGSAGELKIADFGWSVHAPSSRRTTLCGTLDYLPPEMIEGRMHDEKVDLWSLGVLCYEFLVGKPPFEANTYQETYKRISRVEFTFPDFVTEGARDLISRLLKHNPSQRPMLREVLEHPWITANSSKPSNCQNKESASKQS
Serine/threonine-protein kinase Aurora (Homo sapiens), sequence (Q96GD4 whole entry, looked up): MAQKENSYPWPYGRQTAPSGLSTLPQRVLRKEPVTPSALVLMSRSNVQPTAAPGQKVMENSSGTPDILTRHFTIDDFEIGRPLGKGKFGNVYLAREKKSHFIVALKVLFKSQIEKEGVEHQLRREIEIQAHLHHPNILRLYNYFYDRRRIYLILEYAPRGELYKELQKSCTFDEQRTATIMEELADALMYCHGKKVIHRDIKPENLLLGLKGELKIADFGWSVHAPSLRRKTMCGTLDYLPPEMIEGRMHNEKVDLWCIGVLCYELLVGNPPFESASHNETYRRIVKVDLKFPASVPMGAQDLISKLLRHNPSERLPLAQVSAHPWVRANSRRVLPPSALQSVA
Serine/threonine-protein kinase Aurora (Homo sapiens), sequence (Q9UQB9 whole entry, looked up): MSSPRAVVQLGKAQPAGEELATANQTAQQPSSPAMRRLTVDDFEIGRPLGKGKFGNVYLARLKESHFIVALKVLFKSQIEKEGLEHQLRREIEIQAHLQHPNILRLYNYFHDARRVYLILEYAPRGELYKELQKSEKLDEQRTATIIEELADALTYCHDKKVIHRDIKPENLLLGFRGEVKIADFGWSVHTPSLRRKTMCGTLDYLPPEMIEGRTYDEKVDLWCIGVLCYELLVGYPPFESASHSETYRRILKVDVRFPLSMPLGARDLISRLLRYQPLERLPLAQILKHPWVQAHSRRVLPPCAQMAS

[5] = tested on: Proto-oncogene tyrosine-protein kinase receptor Ret (Homo sapiens), P07949 [M918T]; test: Inhibition of RET M918T mutant (unknown origin) at 10 uM by Ambit Kinomescan binding assay relative to control; values are per cent of control
Proto-oncogene tyrosine-protein kinase receptor Ret (Homo sapiens), P07949 [M918T], sequence (P07949 whole entry M918T): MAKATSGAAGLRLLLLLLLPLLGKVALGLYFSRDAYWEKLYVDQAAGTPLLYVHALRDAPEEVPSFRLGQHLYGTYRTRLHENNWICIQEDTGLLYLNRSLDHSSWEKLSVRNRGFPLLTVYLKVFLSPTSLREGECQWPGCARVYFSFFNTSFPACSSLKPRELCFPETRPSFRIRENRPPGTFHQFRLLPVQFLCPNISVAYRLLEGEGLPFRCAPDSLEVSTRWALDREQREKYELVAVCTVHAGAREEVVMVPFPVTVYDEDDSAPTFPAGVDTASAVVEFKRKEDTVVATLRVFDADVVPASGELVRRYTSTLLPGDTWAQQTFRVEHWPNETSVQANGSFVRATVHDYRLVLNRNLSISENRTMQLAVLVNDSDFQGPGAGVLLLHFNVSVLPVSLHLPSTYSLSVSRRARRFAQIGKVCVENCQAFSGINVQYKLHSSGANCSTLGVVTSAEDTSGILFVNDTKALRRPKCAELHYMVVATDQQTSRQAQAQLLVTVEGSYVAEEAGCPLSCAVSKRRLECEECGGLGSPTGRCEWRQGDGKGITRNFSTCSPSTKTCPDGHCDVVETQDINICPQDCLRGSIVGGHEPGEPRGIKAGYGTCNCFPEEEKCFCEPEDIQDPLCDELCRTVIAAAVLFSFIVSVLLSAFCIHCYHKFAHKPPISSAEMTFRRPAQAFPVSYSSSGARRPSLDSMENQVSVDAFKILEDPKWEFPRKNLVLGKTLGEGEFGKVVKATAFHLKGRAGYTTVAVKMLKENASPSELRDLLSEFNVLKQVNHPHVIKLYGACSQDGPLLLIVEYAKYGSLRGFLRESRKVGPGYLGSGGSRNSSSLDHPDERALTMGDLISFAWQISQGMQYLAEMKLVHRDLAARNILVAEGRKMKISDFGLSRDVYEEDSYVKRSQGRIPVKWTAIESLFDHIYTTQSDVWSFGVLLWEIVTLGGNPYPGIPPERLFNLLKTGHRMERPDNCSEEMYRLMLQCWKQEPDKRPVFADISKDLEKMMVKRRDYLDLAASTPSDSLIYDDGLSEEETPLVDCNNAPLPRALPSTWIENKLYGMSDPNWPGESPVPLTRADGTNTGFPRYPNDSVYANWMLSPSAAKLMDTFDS

[6] = target: Atypical kinase COQ8A, mitochondrial (Homo sapiens) (UniProt Q8NI60); test: Inhibition of ADCK3 (unknown origin) at 1 uM by Ambit Kinomescan binding assay relative to control
Atypical kinase COQ8A, mitochondrial (Homo sapiens), sequence (Q8NI60 163-647 limits assumed): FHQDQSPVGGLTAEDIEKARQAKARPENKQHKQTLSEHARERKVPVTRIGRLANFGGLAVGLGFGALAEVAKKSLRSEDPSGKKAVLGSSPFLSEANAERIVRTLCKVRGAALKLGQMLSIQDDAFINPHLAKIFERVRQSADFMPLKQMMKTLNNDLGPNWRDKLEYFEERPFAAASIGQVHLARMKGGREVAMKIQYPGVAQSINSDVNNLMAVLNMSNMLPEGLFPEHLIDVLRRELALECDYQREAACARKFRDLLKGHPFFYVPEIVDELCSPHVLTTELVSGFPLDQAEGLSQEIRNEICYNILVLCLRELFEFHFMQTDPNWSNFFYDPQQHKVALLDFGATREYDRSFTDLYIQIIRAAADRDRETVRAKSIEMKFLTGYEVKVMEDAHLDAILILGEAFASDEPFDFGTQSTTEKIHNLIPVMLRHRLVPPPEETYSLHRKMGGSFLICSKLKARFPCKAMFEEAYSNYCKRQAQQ

[7] = target: T2, Kinase suppressor of Ras 1 (Homo sapiens) (UniProt Q8IVT5); test: Inhibition of KSR1 ACT labeling site harbouring SKNVFYDNGKVVITDFGLFGISGVVR in human A-375 cells at 5 uM by KiNativ Profiling analysis relative to control; assay type: cell-based
T2 sequence (whole entry): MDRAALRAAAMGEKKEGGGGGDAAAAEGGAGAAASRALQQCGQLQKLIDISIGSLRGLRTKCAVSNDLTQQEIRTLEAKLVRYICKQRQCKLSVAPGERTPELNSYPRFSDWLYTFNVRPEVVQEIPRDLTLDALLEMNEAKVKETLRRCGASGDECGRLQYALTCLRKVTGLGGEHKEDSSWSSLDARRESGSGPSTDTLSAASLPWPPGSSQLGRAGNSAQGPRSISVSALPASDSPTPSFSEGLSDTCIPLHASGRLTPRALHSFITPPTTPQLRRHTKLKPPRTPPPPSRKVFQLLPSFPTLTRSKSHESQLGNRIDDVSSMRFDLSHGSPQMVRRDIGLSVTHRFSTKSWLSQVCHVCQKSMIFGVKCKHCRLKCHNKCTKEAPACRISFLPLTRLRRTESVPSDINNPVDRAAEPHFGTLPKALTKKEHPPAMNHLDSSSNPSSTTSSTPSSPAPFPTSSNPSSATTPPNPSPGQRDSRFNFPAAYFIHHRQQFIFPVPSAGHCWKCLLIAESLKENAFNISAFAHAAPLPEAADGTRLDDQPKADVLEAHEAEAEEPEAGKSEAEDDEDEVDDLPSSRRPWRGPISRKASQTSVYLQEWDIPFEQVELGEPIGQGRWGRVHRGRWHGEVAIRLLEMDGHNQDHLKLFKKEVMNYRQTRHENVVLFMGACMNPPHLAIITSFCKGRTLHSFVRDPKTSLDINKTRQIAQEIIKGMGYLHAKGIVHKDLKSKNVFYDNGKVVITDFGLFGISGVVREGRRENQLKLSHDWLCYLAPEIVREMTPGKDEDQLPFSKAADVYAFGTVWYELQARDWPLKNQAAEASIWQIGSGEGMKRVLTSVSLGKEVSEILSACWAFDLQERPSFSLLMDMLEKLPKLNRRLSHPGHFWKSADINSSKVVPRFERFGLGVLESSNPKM

[8] = target: T3, Phosphatidylinositol 5-phosphate 4-kinase type-2 gamma (Homo sapiens) (UniProt Q8TBX8); test: Inhibition of PIP4K2C ATP labeling site harbouring VKELPTLKDMDFLNK in human A-375 cells at 5 uM by KiNativ Profiling analysis relative to control; assay type: cell-based
T3 sequence (whole entry): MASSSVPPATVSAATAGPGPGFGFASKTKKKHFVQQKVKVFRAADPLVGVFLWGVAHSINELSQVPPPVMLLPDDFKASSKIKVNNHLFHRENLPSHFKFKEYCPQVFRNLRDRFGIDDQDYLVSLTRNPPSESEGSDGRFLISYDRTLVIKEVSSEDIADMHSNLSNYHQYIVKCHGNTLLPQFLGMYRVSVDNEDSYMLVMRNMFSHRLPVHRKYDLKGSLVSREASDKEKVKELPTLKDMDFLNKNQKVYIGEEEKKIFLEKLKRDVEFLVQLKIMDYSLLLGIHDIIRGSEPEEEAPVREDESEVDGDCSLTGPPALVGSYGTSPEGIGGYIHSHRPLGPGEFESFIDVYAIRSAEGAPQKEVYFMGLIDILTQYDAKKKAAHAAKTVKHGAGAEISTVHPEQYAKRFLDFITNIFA

[9] = target: Cyclin-dependent kinase-like 2 (Homo sapiens) (UniProt Q92772); test: Inhibition of CDKL2 (unknown origin) at 1 uM by Ambit Kinomescan binding assay relative to control; values are per cent of control
Cyclin-dependent kinase-like 2 (Homo sapiens), sequence (Q92772 whole entry): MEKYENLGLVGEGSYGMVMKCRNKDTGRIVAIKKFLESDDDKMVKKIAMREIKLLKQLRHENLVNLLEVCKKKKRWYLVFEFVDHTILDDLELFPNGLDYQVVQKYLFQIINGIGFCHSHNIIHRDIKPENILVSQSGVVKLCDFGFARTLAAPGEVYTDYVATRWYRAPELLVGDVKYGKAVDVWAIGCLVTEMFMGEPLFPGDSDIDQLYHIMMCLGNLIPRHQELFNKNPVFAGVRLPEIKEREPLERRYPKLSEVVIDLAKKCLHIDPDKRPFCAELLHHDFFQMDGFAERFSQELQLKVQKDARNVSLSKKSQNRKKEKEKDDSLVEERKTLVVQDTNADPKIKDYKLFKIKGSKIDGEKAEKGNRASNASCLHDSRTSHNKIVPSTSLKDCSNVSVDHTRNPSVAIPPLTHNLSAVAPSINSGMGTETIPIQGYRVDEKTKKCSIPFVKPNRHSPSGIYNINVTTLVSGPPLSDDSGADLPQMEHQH

`CNc1cc(Oc2cc(C(=O)Nc3cc(N4CCN(C)CC4)cc(C(F)(F)F)c3)ccc2C)ncn1` showed an inhibition [1] of 9%.
With `CCN1CCN(Cc2ccc(NC(=O)c3ccc(C)c(Oc4ccnc5[nH]ccc45)c3)cc2C(F)(F)F)CC1` the inhibition [2] was “inactive”, the inhibition [3] was 50.1% and the inhibition [4] was 4.1%. For the same compound, the residual activity [5] was 0%.
`CCN1CCN(Cc2ccc(NC(=O)c3ccc(C)c(/C=C/c4cnc5[nH]ccc5c4OC)c3)cc2C(F)(F)F)CC1` was tested, and the inhibition [6] was 100%, the inhibition [7] was 1.7% and the inhibition [8] was 8.5%. For the same compound, the residual activity [9] was 4.2%.

— ChEMBL document CHEMBL5696442, “Discovery of type II inhibitors of TGFβ-activated kinase 1 (TAK1) and mitogen-activated protein kinase kinase kinase kinase 2 (MAP4K2)” (J Med Chem, 2015)
